Here are results for six molecules from ChEMBL document CHEMBL3875215, “Neuritogenic activity of bi-functional bis-tryptoline triazole” (Bioorg Med Chem, 2017).

The target in series [1] is T1, Beta-secretase 1 (Homo sapiens, UniProt P56817). Put plainly: Inhibition of BACE1 (unknown origin) at 25 uM using beta-secretase substrate 4 after 30 mins by fluorescence spectrophotometric method relative to control.
The target of series [2] is T2, Amyloid-beta precursor protein (Homo sapiens, UniProt P05067). Put plainly: Inhibition of human amyloid beta (1 to 42) aggregation at 100 uM incubated for 48 hrs under dark condition by ThT fluorescence assay relative to control.
The nature of series [3]: Antioxidant activity assessed as inhibition of DPPH radical at 100 uM incubated for 30 mins under dark condition relative to control. Type of series: functional. (In general: The DPPH test is a chemical assay of radical scavenging.)
Series [4] is described as follows: Cytotoxicity against mouse P19 derived neurons assessed as cell viability at 1 nM after 18 hrs by XTT assay relative to control. The class given is toxicity. The following applies: read-out: Activity. On the technique in general: Tetrazolium assays rely on reduction of a dye to a coloured formazan, in cell work by metabolically active cells.
A short description of series [5]: Cytotoxicity against mouse P19 derived neurons assessed as cell viability at 10 nM after 18 hrs by XTT assay relative to control. The class given is toxicity. The following applies: read-out: Activity.
Series [6] is described as follows: Cytotoxicity against mouse P19 derived neurons assessed as cell viability at 100 nM after 18 hrs by XTT assay relative to control. The class given is toxicity. As to conditions: read-out: Activity.
A short description of series [7]: Cytotoxicity against mouse P19 derived neurons assessed as cell viability at 1000 nM after 18 hrs by XTT assay relative to control. Type of series: toxicity. As to conditions: read-out: Activity.
A short description of series [8]: Cytotoxicity against mouse P19 derived neurons assessed as cell viability at 10000 nM after 18 hrs by XTT assay relative to control. As to conditions: read-out: Activity. The class given is toxicity.
In series [9] the test system is P19. Put plainly: Neuritogenic activity in mouse P19 derived neurons assessed as increase in neurite length at 1 nM after 18 hrs by phase contrast microscopic method relative to control. The class given is functional.
Series [10] has as its system P19. Put plainly: Neuritogenic activity in mouse P19 derived neurons assessed as increase in neurite number at 1 nM after 18 hrs by phase contrast microscopic method relative to control. The class given is functional.
Series [11] deals with T1, Beta-secretase 1. Put plainly: Inhibition of BACE1 (unknown origin) using beta-secretase substrate 4 after 30 mins by fluorescence spectrophotometric method.
Series [12] deals with T2, Amyloid-beta precursor protein. Put plainly: Inhibition of human amyloid beta (1 to 42) aggregation incubated for 48 hrs under dark condition by ThT fluorescence assay.
The next series concerns SH-SY5Y. In words: Neuroprotective activity against aggregated amyloid beta-induced toxicity in human SH-SY5Y cells assessed as increase in cell viability at 1 to 10 uM preincubated for 2 hrs followed by aggregated amyloid beta addition measured after 24 hrs by MTT assay. The class given is functional, cell-based.
Series [13] addresses T2, Amyloid-beta precursor protein. In words: Inhibition of amyloid beta (1 to 42) aggregation (unknown origin).

Calls of active or inactive are those of the source. The rule behind the calls is not given here.

T2 sequence (P05067 whole entry): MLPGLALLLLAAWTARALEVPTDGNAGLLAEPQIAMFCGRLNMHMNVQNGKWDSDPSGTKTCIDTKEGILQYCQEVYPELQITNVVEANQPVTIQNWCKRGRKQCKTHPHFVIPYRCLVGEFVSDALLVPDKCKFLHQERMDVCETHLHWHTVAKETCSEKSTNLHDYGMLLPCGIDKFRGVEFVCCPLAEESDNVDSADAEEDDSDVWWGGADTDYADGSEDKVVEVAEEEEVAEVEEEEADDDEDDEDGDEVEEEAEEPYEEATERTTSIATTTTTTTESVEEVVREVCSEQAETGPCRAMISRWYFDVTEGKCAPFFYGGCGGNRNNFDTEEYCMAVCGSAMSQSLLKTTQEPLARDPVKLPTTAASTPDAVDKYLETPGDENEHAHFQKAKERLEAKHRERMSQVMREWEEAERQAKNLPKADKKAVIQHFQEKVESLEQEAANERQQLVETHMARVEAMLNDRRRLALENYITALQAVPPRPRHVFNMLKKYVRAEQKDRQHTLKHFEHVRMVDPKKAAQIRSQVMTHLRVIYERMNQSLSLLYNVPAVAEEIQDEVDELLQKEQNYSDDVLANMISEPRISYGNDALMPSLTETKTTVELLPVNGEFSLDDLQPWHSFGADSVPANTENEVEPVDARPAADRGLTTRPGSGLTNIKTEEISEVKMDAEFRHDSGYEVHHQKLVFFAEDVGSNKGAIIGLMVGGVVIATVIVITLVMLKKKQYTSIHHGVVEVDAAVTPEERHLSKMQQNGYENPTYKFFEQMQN
T1 sequence (P56817 whole entry): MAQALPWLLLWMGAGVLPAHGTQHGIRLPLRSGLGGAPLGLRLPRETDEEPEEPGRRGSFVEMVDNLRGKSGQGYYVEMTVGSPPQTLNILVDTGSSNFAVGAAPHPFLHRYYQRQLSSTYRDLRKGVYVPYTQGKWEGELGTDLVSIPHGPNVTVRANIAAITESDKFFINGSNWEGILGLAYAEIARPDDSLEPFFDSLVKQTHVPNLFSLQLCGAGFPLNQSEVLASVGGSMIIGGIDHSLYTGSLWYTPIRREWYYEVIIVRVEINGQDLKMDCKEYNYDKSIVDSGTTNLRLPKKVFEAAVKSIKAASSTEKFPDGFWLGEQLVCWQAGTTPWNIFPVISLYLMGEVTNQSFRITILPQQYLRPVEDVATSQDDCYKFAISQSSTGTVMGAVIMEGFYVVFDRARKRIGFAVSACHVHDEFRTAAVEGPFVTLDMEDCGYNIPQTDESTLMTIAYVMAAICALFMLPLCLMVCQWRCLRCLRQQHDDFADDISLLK

The term inhibition denotes the drop in the measured response relative to a control, in per cent. In the case of `N[C@@H](Cc1c[nH]c2ccccc12)Cn1cc(-c2ccc(Cl)c(Cl)c2)nn1`, the inhibition was found to be 61.5% against Beta-secretase 1 [1], 67.6% in series [2] and 0% in series [3]. The viability at 18 h, 0.001 µM in [4] turned out to be 139%. In addition, in series [5], the viability at 18 h, 0.01 µM was determined as 128%. Moreover, the viability at 18 h, 0.1 µM in [6] was 116%. Besides, the viability at 18 h, 1 µM in series [7] turned out to be 108%. The viability at 18 h, 10 µM in [8] was determined as 93.8%. The Activity came out at 84.13% in the series with P19 [9] and 118.7% in the series with P19 [10].

For `COC1=C2C[C@@H](C)C[C@H](OC)[C@H](O)[C@@H](C)/C=C(\C)[C@H](OC(N)=O)[C@@H](OC)/C=C\C=C(/C)C(=O)NC(=CC1=O)C2=O` [GELDANAMYCIN], the figures for the Activity in the series on P19 [9] and with P19 [10] were 59.14% and 55.22%, respectively.

A word on the IC50: it is the concentration that gives 50% inhibition. A higher IC50 goes with a need for much substance. For `OC[C@@H]1Cc2c([nH]c3ccccc23)CN1Cc1cn(C[C@@H]2Cc3c([nH]c4ccccc34)CN2)nn1`, the inhibition stood at 67.5% on Beta-secretase 1 [1], 80.2% in series [2] and 8.46% in series [3]. Also, the IC50 against Beta-secretase 1 [11] was found to be 16.7 µM; in [12] it was 66.4 µM. Further, the viability at 18 h, 0.001 µM in series [4] was 131%. Besides, in series [5], the viability at 18 h, 0.01 µM stood at 131%. In series [6], the viability at 18 h, 0.1 µM is 129%. Further, in [7], the viability at 18 h, 1 µM turned out to be 131%. In addition, the viability at 18 h, 10 µM in series [8] amounted to 124%. In addition, the Activity with P19 [9] is given as 93.25%; with P19 [10] it was 136.09%. The outcome with SH-SY5Y was Active.

Take `O=C(/C=C/c1ccc(O)c(O)c1)NCc1cn(C[C@@H]2Cc3c([nH]c4ccccc34)CN2)nn1`: the inhibition against Beta-secretase 1 [1] came out at 21.7%; in [2], 84.1%; in series [3], 92.3%. At Beta-secretase 1 [11], this molecule returned an IC50 greater than 50 µM. In series [4], the viability at 18 h, 0.001 µM was determined as 130%. For the same molecule, in series [5], the viability at 18 h, 0.01 µM came out at 139%. The viability at 18 h, 0.1 µM in series [6] is 125%. In [7], the viability at 18 h, 1 µM worked out at 120%. The viability at 18 h, 10 µM in series [8] was found to be 140%. Further, the Activity is 57.54% in the series on P19 [9] and 123.04% in the series on P19 [10].

`N[C@@H](Cc1c[nH]c2ccccc12)Cn1cc(CNC(=O)/C=C/c2ccc(O)c(O)c2)nn1`: the inhibition stood at 40% on Beta-secretase 1 [1], 81.5% in [2] and 50.6% in series [3]. Further, the viability at 18 h, 0.001 µM in series [4] stood at 133%. The viability at 18 h, 0.01 µM in [5] stood at 130%. Moreover, the viability at 18 h, 0.1 µM in series [6] was determined as 135%. In addition, the viability at 18 h, 1 µM in series [7] is 129%. The viability at 18 h, 10 µM in series [8] amounted to 140%. Moreover, the Activity in the series with P19 [9] is reported as 62.21%; with P19 [10] it was 131.74%.

Regarding `O=c1c(O)c(-c2ccc(O)c(O)c2)oc2cc(O)cc(O)c12` [QUERCETIN], the Activity was determined as 58.37% in the series on P19 [9] and 40.43% in the series with P19 [10]. The molecule also came in with an IC50 in series [13] of 7.94 µM.
